Assay results published in ChEMBL document CHEMBL1201862, “PubChem BioAssay data set” (2004).
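Exposure lasted 48 hours, with cells grown in 96-well plates and compounds tested at five concentrations. GI50 = concentration required for 50% inhibition of growth.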 Calls of active or inactive are those of the source. No stated cut-off is given here; in the data, active = GI50 up to about 1.1 µM and inactive = higher.

Key:
Assay in all cases: DTP human tumour cell line panel, 48 h
SW-620 = tested on: SW-620
OVCAR-8 = tested on: OVCAR-8
LOX IMVI = tested on: LOX IMVI
DU-145 = tested on: DU-145
OVCAR-5 = tested on: OVCAR-5
UACC-62 = tested on: UACC-62
A549 = tested on: A549
M14 = tested on: M14
CCRF-CEM = tested on: CCRF-CEM
SN12C = tested on: SN12C
Hs-578T = tested on: Hs-578T
PC-3 = tested on: PC-3
HCT-15 = tested on: HCT-15
SF-295 = tested on: SF-295
HCT-116 = tested on: HCT-116
HT-29 = tested on: HT-29
RPMI-8226 = tested on: RPMI-8226
ACHN = tested on: ACHN
OVCAR-3 = tested on: OVCAR-3
HOP-92 = tested on: HOP-92
A498 = tested on: A498
SK-MEL-5 = tested on: SK-MEL-5
COLO 205 = tested on: COLO 205
SF-539 = tested on: SF-539
SR = tested on: SR
HCC 2998 = tested on: HCC 2998
U-251 = tested on: U-251
MCF7 = tested on: MCF7
HL-60 = tested on: HL-60
SK-OV-3 = tested on: SK-OV-3
NCI-H23 = tested on: NCI-H23
EKVX = tested on: EKVX
TK-10 = tested on: TK-10
T47D = tested on: T47D
Malme-3M = tested on: Malme-3M
RXF 393 = tested on: RXF 393
SK-MEL-28 = tested on: SK-MEL-28
MDA-MB-231 = tested on: MDA-MB-231
NCI-H226 = tested on: NCI-H226
MOLT-4 = tested on: MOLT-4
UO-31 = tested on: UO-31
NCI/ADR-RES = tested on: NCI/ADR-RES
OVCAR-4 = tested on: OVCAR-4
786-0 = tested on: 786-0
SF-268 = tested on: SF-268
MDA-MB-435 = tested on: MDA-MB-435
NCI-H460 = tested on: NCI-H460
CAKI-1 = tested on: CAKI-1
MDA-N = tested on: MDA-N
SK-MEL-2 = tested on: SK-MEL-2
IGROV-1 = tested on: IGROV-1
K562 = tested on: K562
NCI-H522 = tested on: NCI-H522
HOP-62 = tested on: HOP-62
SNB-19 = tested on: SNB-19
BT-549 = tested on: BT-549
KM12 = tested on: KM12
SNB-75 = tested on: SNB-75
UACC-257 = tested on: UACC-257

COC(=O)/C=C(\C(=O)OC)c1cc(C)c2cc(C(C)C)ccc(C)c1-2
GI50 (SW-620): 34 µM (inactive) | GI50 (OVCAR-8): 55.1 µM (inactive) | GI50 (LOX IMVI): 45.2 µM (inactive) | GI50 (DU-145): 60.3 µM (inactive) | GI50 (OVCAR-5): > 100 µM (inactive) | GI50 (UACC-62): 32.2 µM (inactive) | GI50 (A549): 28.2 µM (inactive) | GI50 (M14): 23.5 µM (inactive) | GI50 (CCRF-CEM): 71.4 µM (inactive) | GI50 (SN12C): 53.3 µM (inactive) | GI50 (Hs-578T): 42.7 µM (inactive) | GI50 (PC-3): 29 µM (inactive) | GI50 (HCT-15): 11.7 µM | GI50 (SF-295): 41.7 µM (inactive) | GI50 (HCT-116): 34 µM (inactive) | GI50 (HT-29): 13.3 µM (inactive) | GI50 (RPMI-8226): > 100 µM (inactive) | GI50 (ACHN): 25.6 µM (inactive) | GI50 (OVCAR-3): 49.4 µM (inactive) | GI50 (HOP-92): 24.5 µM (inactive) | GI50 (A498): > 100 µM (inactive) | GI50 (SK-MEL-5): 25.6 µM (inactive) | GI50 (COLO 205): 30.3 µM (inactive) | GI50 (SF-539): 30.5 µM (inactive) | GI50 (SR): > 100 µM (inactive) | GI50 (HCC 2998): 28 µM (inactive) | GI50 (U-251): 51.1 µM (inactive) | GI50 (MCF7): 24.9 µM (inactive) | GI50 (HL-60): 34.7 µM (inactive) | GI50 (SK-OV-3): 85.9 µM (inactive) | GI50 (NCI-H23): 31.8 µM (inactive) | GI50 (EKVX): 71 µM (inactive) | GI50 (TK-10): 83.9 µM (inactive) | GI50 (T47D): 15.4 µM (inactive) | GI50 (Malme-3M): 38.5 µM (inactive) | GI50 (RXF 393): 41.4 µM (inactive) | GI50 (SK-MEL-28): > 100 µM (inactive) | GI50 (MDA-MB-231): 24.7 µM (inactive) | GI50 (NCI-H226): 53.3 µM (inactive) | GI50 (MOLT-4): > 100 µM (inactive) | GI50 (UO-31): 20.5 µM (inactive) | GI50 (NCI/ADR-RES): 32 µM (inactive) | GI50 (OVCAR-4): 88.3 µM (inactive) | GI50 (786-0): 75.5 µM (inactive) | GI50 (SF-268): > 100 µM (inactive) | GI50 (MDA-MB-435): 30 µM (inactive) | GI50 (NCI-H460): 40.7 µM (inactive) | GI50 (CAKI-1): 47.9 µM (inactive) | GI50 (MDA-N): 19.5 µM (inactive) | GI50 (SK-MEL-2): 34.8 µM (inactive) | GI50 (IGROV-1): 85.9 µM (inactive) | GI50 (K562): > 100 µM (inactive) | GI50 (NCI-H522): 13.1 µM (inactive) | GI50 (HOP-62): 34.8 µM (inactive) | GI50 (SNB-19): > 100 µM (inactive) | GI50 (BT-549): 39.6 µM (inactive) | GI50 (KM12): 37.4 µM (inactive)

CO[C@@H]1[C@@H](OC2OC(C)C(OC3CC(C)(O)C(OC(=O)CC(C)C)C(C)O3)C(N(C)C)C2O)[C@@H](CC=O)C[C@@H](C)C(=O)/C=C/C2O[C@H]2C[C@@H](C)OC(=O)C[C@H]1OC(C)=O (stereo not given in full)
GI50 (SW-620): 17.5 µM (inactive) | GI50 (OVCAR-8): 22.6 µM (inactive) | GI50 (LOX IMVI): 15.8 µM (inactive) | GI50 (DU-145): 14.6 µM (inactive) | GI50 (OVCAR-5): 17.1 µM (inactive) | GI50 (UACC-62): 21.4 µM (inactive) | GI50 (A549): 32 µM (inactive) | GI50 (M14): 16.1 µM (inactive) | GI50 (CCRF-CEM): 9.77 µM (inactive) | GI50 (SN12C): 15.4 µM (inactive) | GI50 (Hs-578T): 37.4 µM (inactive) | GI50 (PC-3): 15.5 µM (inactive) | GI50 (HCT-15): 18.6 µM | GI50 (SF-295): 24.7 µM (inactive) | GI50 (HCT-116): 14.9 µM (inactive) | GI50 (HT-29): 12.3 µM (inactive) | GI50 (RPMI-8226): 17.7 µM (inactive) | GI50 (ACHN): 18.7 µM (inactive) | GI50 (OVCAR-3): 14.3 µM (inactive) | GI50 (HOP-92): 4.46 µM (inactive) | GI50 (A498): 23 µM (inactive) | GI50 (SK-MEL-5): 15.3 µM (inactive) | GI50 (COLO 205): 12.9 µM (inactive) | GI50 (SF-539): 19.6 µM (inactive) | GI50 (SR): 11.3 µM (inactive) | GI50 (HCC 2998): 17.7 µM (inactive) | GI50 (U-251): 16.4 µM (inactive) | GI50 (MCF7): 16.3 µM (inactive) | GI50 (HL-60): 6.47 µM (inactive) | GI50 (SK-OV-3): 39.2 µM (inactive) | GI50 (NCI-H23): 18.9 µM (inactive) | GI50 (EKVX): 22.4 µM (inactive) | GI50 (TK-10): 24.9 µM (inactive) | GI50 (T47D): 18.7 µM (inactive) | GI50 (Malme-3M): 14 µM (inactive) | GI50 (RXF 393): 20.7 µM (inactive) | GI50 (SK-MEL-28): 18.5 µM (inactive) | GI50 (MDA-MB-231): 24.8 µM (inactive) | GI50 (NCI-H226): 13 µM (inactive) | GI50 (MOLT-4): 9.57 µM (inactive) | GI50 (UO-31): 20.7 µM (inactive) | GI50 (NCI/ADR-RES): 31 µM (inactive) | GI50 (OVCAR-4): 15.2 µM (inactive) | GI50 (786-0): 20 µM (inactive) | GI50 (SF-268): 79.1 µM (inactive) | GI50 (MDA-MB-435): 17.7 µM (inactive) | GI50 (SNB-75): 31.6 µM (inactive) | GI50 (NCI-H460): 16.8 µM (inactive) | GI50 (MDA-N): 15.2 µM (inactive) | GI50 (SK-MEL-2): 18.8 µM (inactive) | GI50 (IGROV-1): 10.8 µM (inactive) | GI50 (K562): 12.1 µM (inactive) | GI50 (NCI-H522): 16.6 µM (inactive) | GI50 (HOP-62): 19 µM (inactive) | GI50 (SNB-19): 22 µM (inactive) | GI50 (BT-549): 17.6 µM (inactive) | GI50 (KM12): 17.3 µM (inactive) | GI50 (UACC-257): 17.2 µM (inactive)
